The test system of data set [1] is BuChE. The note with it: read-out: IC50 ± S.D BuChE; cited from earlier work.
Data set [2] has as its system AChE. The note with it: cited from earlier work.
Data set [3] deals with primary cultured porcine fetal kidney cells. The data set is described as follows: In vitro cytotoxicity, MTT assay. The note with it: read-out: Cytotoxicity IC50, primary cultured porcine fetal kidney cells; 48 h. As for the experimental part: (§1) In vitro cytotoxicity assay
(§2) Cytotoxic activity of the compounds was determined using MTT assay1. Primary cultured goat fetal fibroblasts and primary cultured porcine fetal kidney cells were cultured in the DMEM medium (high glucose) and a mixture culture medium consisting of 50% DMEM (high glucose) and 50% DMEM/F12, respectively, supplemented with 10% fetal bovine serum, penicillin (100 U/mL) and streptomycin (100 μg/mL) at 37 ℃ in 5% CO2. The cells at […]
(§3) After removal of the medium, the cells in each well were treated with 200 μL solution containing different concentrations of the tested compounds and vehicle controls which only received an equivalent amount of DMSO in quintuplicate for 48 h at 37 ℃. Thirty microliter of MTT solution (5 mg/mL in PBS) was added to each well with […] for an additional 4 h. After removing the supernatant, 150 μL of DMSO was added to completely dissolve the formazan crystals that had formed in viable cells in the wells. Finally, the plates were […]
(§4) containing the same media as other test wells but no cells were used as blank controls. All the doses were tested in quintuplicate and the experiments were repeated at least three times. The inhibition rates (IRs) were calculated.
(§5) (GraphPad Software Inc., San Diego, CA, USA).

For data set [4], the target named is T1, BuChE (Equus caballus, UniProt P81908).
T1 construct: BuChE (E.C. 3.1.1.8) (BR, 20 u/mg) from horse serum; purchased Shanghai Yuanye biological technology Co. Ltd (Shanghai, China); host or cells: horse serum (tissue-derived)
The data set is described as follows: BuChE inhibition, Ellman's method. It counts as biochemical, horse. The note with it: read-out: IC50 ± S.D BuChE. An excerpt:
There is increasing recognition that BuChE may play an important role in cholinergic transmission[15],[16]. While the level of AChE decreases dramatically in the advanced stage of AD, BuChE increases in brain regions involved in cognitive functions[17],[18]. At this point, BuChE is able to compensate for AChE loss by hydrolyzing ACh. These observations lead one to believe that inhibition of both AChE and BuChE may contribute to improvement of current symptomatic treatments of AD. Therefore, the compounds in Table 2 were also evaluated for BuChE inhibition activity by means of Ellman’s method. […] AChE (E.C. 3.1.1.7) (BR, 200 u/mg) from fly’s head and BuChE (E.C. 3.1.1.8) (BR, 20 u/mg) from horse serum were purchased from Shanghai Yuanye biological technology Co. Ltd (Shanghai, China).
The inhibitory activities of the compounds against AChE were evaluated according to Ellman’s coupled enzyme assay[47] with the following modifications. 90 μL potassium phosphate buffer (PBS, 0.1 M, pH 7.4), 10 μL the solution of 2 units/mL AChE in 0.1 M PBS (pH 7.4) and 10 μL the solution of 200 μM test compounds in the mixed solution of methanol-PBS (pH 7.4) (1:9, V/V) were added to each well of a 96-well plate. The methanol-PBS solution was used as a blank control. After incubation at room temperature for 10 min, 60 μL the solution of 10 mM DTNB in PBS was added into each the well. The plate was placed on crushed ices and cooled for 20 min. To each the well was added 30 μL the solution of 7.5 mM ATCh in PBS (pH 7.4). […] Each test was performed in triplicate. Inhibition rates of the enzyme were calculated relative to a control sample. The inhibitory activities against BuChE were measured as described above for AChE, using 0.7 unit/mL BuChE and 4 mM BuTCh instead of AChE and ATCh as the enzyme and substrate, respectively.
The probit value of the average inhibition rate for each test concentration and the corresponding lg[concentration] were used to establish enzyme inhibition regression equation by the linear least-square fitting method. IC50 values were calculated from the equations.
For orientation: Ellman's reagent forms a yellow product with free thiols.

Data set [5] concerns mouse neuroblastoma N2a cells. The experiment in a line: In vitro cytotoxicity, MTT assay. The following applies: read-out: Cytotoxicity IC50, mouse neuroblastoma N2a cells; 48 h.
For data set [6], the target named is T2, AChE (Musca domestica, UniProt Q7YWJ9). The data set is described as follows: biochemical. The class given is biochemical, fly.
The target of data set [7] is T2, AChE. The data set is described as follows: Kinetic analysis of AChE inhibition (substrate ATCh). The note with it: for Ki: substrate ATCh, read-out: inhibition constant Ki for AChE; for mechanism of AChE inhibition: with respect to substrate ATCh. The class given is biochemical, fly. The text has this:
(A and B) The reciprocals of the initial reaction rates and substrate concentrations are plotted. (C and D) The slope values of the lines from graph A or C are plotted versus the inhibitor concentration, affording an equation of linear regression.

Data set [8] in a line: In vitro cytotoxicity, MTT assay. The following applies: pig, primary cultured porcine fetal kidney cells. As for the experimental part: as §1, §2, §3, §4, §5
On the technique in general: Tetrazolium dyes change colour on reduction, which living cells bring about.

Data set [9] in a line: In vitro cytotoxicity, MTT assay. The note with it: mouse, mouse neuroblastoma N2a cells.
The mark [10] stands for this setting: test concentration of the compound 10 μM.

Here are results for eight compounds from article PMC5784158, “New 2-Aryl-9-methyl-β-carbolinium salts as Potential Acetylcholinesterase Inhibitor agents: Synthesis, Bioactivity and Structure–Activity Relationship” (Scientific Reports, 2018).

One may read the IC50 as the concentration at which inhibition is half-maximal. What is called Ki is the dissociation constant of the complex between target and ligand, obtained from inhibition or displacement. For orientation: inhibition means the change of the read-out against control, counted positive when it falls. As a reminder, the Km is the substrate concentration at which the rate is half of its maximum.

Read-outs that look alike come from different tables or passages of the source. Marks after values point to notes of the source that are not given here.

Take `CCN(C)C(=O)Oc1cccc([C@H](C)N(C)C)c1` [Rivastigmine, rivastigmine]: the IC50 in the data set on BuChE [1] is […]; with AChE [2] (read-out: IC50 ± S.D AChE), […]. The “SI: selectivity index, IC50 (BuChE)/IC50 (AChE)” value in the data set with AChE [2] is […].

T2 sequence (Q7YWJ9 81-659): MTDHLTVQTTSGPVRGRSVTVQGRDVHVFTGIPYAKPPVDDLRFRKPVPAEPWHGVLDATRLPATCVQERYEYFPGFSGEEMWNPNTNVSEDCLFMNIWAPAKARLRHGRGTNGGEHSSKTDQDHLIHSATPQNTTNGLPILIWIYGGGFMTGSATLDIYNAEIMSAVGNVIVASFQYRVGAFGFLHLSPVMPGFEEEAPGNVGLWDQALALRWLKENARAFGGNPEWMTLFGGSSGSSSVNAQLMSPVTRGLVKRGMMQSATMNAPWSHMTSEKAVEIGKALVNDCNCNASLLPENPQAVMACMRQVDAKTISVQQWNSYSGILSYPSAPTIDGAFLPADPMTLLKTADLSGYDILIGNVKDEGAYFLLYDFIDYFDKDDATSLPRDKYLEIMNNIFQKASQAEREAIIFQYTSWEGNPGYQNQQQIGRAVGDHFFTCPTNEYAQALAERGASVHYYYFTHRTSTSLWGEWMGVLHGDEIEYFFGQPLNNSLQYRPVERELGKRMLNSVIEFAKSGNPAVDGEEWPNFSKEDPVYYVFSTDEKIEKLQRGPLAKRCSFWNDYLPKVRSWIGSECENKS
T1 sequence (P81908 whole entry): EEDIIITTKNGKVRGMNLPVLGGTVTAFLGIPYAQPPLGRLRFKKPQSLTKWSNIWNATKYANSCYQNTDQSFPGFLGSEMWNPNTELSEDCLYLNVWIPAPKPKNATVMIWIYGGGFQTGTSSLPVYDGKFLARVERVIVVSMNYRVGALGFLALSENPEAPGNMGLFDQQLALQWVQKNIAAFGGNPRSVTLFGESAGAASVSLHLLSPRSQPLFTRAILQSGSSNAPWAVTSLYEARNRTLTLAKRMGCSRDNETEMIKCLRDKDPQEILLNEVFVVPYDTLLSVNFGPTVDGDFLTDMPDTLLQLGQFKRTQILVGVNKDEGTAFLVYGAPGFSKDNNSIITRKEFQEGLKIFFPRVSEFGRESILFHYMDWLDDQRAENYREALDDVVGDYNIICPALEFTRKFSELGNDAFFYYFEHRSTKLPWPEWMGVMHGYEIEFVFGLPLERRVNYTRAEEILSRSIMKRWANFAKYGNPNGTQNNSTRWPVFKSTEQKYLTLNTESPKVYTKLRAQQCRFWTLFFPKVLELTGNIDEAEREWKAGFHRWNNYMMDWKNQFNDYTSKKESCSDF

Consider `Cn1c2ccccc2c2cc[n+](-c3ccc(Br)cc3Br)cc21.[Br-]` [Compound B33, 9-Methyl-2-(2,4-dibromophenyl)-β-carboline bromide], for which the IC50 in data set [3] is > 20 µM; on BuChE [4] it was 30.6 ± 2.31 µM; in [5], 10.6 µM. The “SI: selectivity index, ratio IC50 (BuChE)/IC50 (AChE)” value (from here on “SI: selectivity index, ratio IC50”) on AChE [6] is on record as 278.2. Besides, the “Inhibition rate (%)” value on AChE [6] (setting [10]) is reported as 96.7 ± 0.05 a %.

`Cc1ccc(-[n+]2ccc3c4ccccc4n(C)c3c2)cc1.[Br-]` [Compound B22, 9-Methyl-2-(4-methylphenyl)-β-carboline bromide]: the IC50 in data set [3] was determined as 18.1 µM; at BuChE [4], 32.2 ± 1.65 µM; in data set [5], 19.2 µM. Further, at AChE [7] (Km of ATCh versus Ki), the “binding capacity with AChE relative to substrate ATCh” value is recorded as ~3835 fold. In addition, on AChE [7] (ratio of Ki values), the “binding capacity with AChE relative to A22” value is given as “approximately 11 fold”. Moreover, the Ki at AChE [7] was determined as 0.0425 µM. Further, the “mechanism of AChE inhibition” value on AChE [7] is given as “competitive”. For the same compound, the “SI: selectivity index, ratio IC50” value at AChE [6] was found to be 111.6. The “Inhibition rate (%)” value at AChE [6] (setting [10]) is recorded as 95.2 ± 0.5 abc %.

For the compound `Nc1c2c(nc3cc(Cl)ccc13)C[C@H]1C=C(CCO)C[C@@H]2C1` [huprine W], the IC50 in the data set on AChE [2] (inhibitor co-crystallised with AChE (PDB 4BDT), reference not given, read-out: IC50 AChE) is 0.0011 µM.

With `COc1cc2c(cc1OC)C(=O)C(CC1CCN(Cc3ccccc3)CC1)C2` (centres unmarked) [Donepezil, donepezil], in the data set with BuChE [1], the half-maximal inhibitory concentration (IC50) was […].

Regarding `Cc1ccc([N+]2=Cc3c(c4ccccc4n3C)CC2)cc1` [Compound A22], the IC50 at 48 h in [8] was 5.18 µM; in data set [9], 2.13 µM. Also, the Ki on AChE [7] was determined as 0.483 µM. Further, at AChE [7], the “mechanism of AChE inhibition” value was “competitive”. The figures for the IC50 at BuChE [4] and on AChE [6] (read-out: IC50 ± S.D AChE) were 80.1 ± 5.27 µM and 1.45 ± 0.21 µM, respectively. Moreover, the “SI: selectivity index, ratio IC50” value at AChE [6] was found to be 55.2. In addition, the inhibition at 10 µM at AChE [6] (test concentration of the compound 10 μM, read-out: Inhibition rate (%)) turned out to be 77.6 ± 1.5%.

On to `CC(=O)SCC[N+](C)(C)C` [acetylthiocholine iodide, Acetylthiocholine iodide, reference compound], for which, on AChE [7] (substrate), the Michaelis constant (Km) was determined as 163 µM.

As to `Nc1c2c(nc3ccccc13)CCCC2` [Tacrine, tacrine], the IC50 in the data set with BuChE [1] is […].
